Assay results published in ChEMBL document CHEMBL5674850, “ASAP - Solubility” (2024).
In brackets after ≈: the same amount, converted by molar mass.

Assay: Kinetic solubility of compound by measuring concentration at pH 7.4 in saturated PBS buffer by UV LCMS/MS using calibration curves. The assay has been performed by Enamine biological services, Bienta Ltd.The protocol is publicly available: dx.doi.org/10.17504/protocols.io.j8nlk8y41l5r/v1
Assay type: physicochemical
Conditions: PBS buffer
COCc1cc(Cl)cc([C@H](Nc2ccc3c(c2)CNC3)C(=O)NCC(F)F)c1 gave a solubility kinetic of 192 µM (≈ 78.7 µg/mL).
For O=C(NCC(F)(F)F)c1cc(Cl)c(F)cc1NS(=O)(=O)c1ccc(Oc2ccccc2Cl)cc1, the solubility kinetic was 14 µM (≈ 7.52 µg/mL).
Work on CNC(=O)[C@H](Nc1cc(CN)cc(C(=O)O)c1)c1cc(Cl)cc(C2CC2)c1 yielded a solubility kinetic of 335 µM (≈ 130 µg/mL).
Compound N#Cc1cccc(-c2nc3c(C(=O)Nc4ccc5c(c4)CNC5)cc(F)cc3[nH]2)c1 has a solubility kinetic of 3 µM (≈ 1.19 µg/mL).
In the case of O=C(O)c1cc(Cl)ccc1NS(=O)(=O)c1ccc(Oc2ccccc2Cl)cc1, the solubility kinetic is reported as 369 µM (≈ 162 µg/mL).
For O=C(Nc1cc2c(cc1C1CC1)CNC2)c1cc(F)cc2[nH]ncc12, the solubility kinetic was 189 µM (≈ 63.6 µg/mL).
NCCc1ccc(NC(=O)c2cc(Cl)cc(NC(=O)OCc3ccccc3)c2)cc1 showed a solubility kinetic of 88 µM (≈ 37.3 µg/mL).
Compound NCc1cccc([C@@H]2C[C@H]2c2cc(Cl)cc(NC(=O)OCc3ccccc3)c2)c1 has a solubility kinetic of 50 µM (≈ 20.3 µg/mL).
Compound Cn1ncc2c(C(=O)Nc3ccc4c(c3)CNC4)cc(Cl)cc21 has a solubility kinetic of at least 400 µM.
Work on O=C(Nc1cc2c(cc1Br)CNC2)c1cc(F)cc2[nH]ncc12 yielded a solubility kinetic of 47 µM (≈ 17.6 µg/mL).
With O=C1Cc2cc(C(=O)Nc3ccc4c(c3)CNC4)ccc2N1 the solubility kinetic was 136 µM (≈ 39.9 µg/mL).
For O=C(Nc1ccc2c(c1)CNC2)c1cc(Cl)cc2cn[nH]c12, the solubility kinetic was 184 µM (≈ 57.5 µg/mL).
In the case of NCc1cccc(NC(=O)C[C@H](NC(=O)OCc2ccccc2)c2ccc(OCc3ccccc3)c(Br)c2)c1, the solubility kinetic is reported as 21 µM (≈ 12.4 µg/mL).
Compound C=CC[C@H](Nc1cccc(-c2nn[nH]n2)c1)c1cc(Cl)cc(NC(=O)OCc2ccccc2)c1 has a solubility kinetic of 332 µM (≈ 158 µg/mL).
Work on COc1ccc(-c2nc3c(C(=O)Nc4ccc5c(c4)CNC5)cc(F)cc3[nH]2)nn1 yielded a solubility kinetic of 16 µM (≈ 6.47 µg/mL).
N#Cc1cc2c(cc1NC(=O)c1cc(F)cc3[nH]ncc13)CNC2 showed a solubility kinetic of 191 µM (≈ 61.4 µg/mL).
In the case of O=C(Nc1cc(Cl)cc(C(=O)Nc2cccc(-n3nn[nH]c3=O)c2)c1)OCc1ccccc1, the solubility kinetic is reported as 107 µM (≈ 49.7 µg/mL).
Work on CNC(=O)[C@H](Nc1cc(Cl)cc(NC(=O)OCc2ccccc2)c1)c1cccc(-c2nn[nH]n2)c1 yielded a solubility kinetic of 333 µM (≈ 164 µg/mL).
O=C(Nc1ccc2c(c1)CNC2)c1cccc2[nH]c(C(F)(F)F)cc12 showed a solubility kinetic of 372 µM (≈ 128 µg/mL).
In the case of CC(C)NC(=O)[C@H](Nc1ccc2c(c1)CNC2)c1cc(Cl)cc2[nH]c(-c3ccccc3)nc12, the solubility kinetic is reported as 154 µM (≈ 70.8 µg/mL).
With NCc1cc(C(=O)O)cc([C@@H]2C[C@H]2c2cc(Cl)cc(NC(=O)OCc3ccccc3)c2)c1 the solubility kinetic was 52 µM (≈ 23.4 µg/mL).
N#CCCNC(=O)[C@H](Nc1ccc2c(c1)CNC2)c1cc(Cl)cc(C2CC2)c1 showed a solubility kinetic of 374 µM (≈ 148 µg/mL).
For O=C(NCC(F)F)[C@H](Nc1ccc2c(c1)CNC2)c1cc(Br)cc2nc[nH]c12, the solubility kinetic was at least 400 µM.
For Cn1ncc2c(C(=O)Nc3ccc4c(c3)CNC4)cc(Br)cc21, the solubility kinetic was 392 µM (≈ 146 µg/mL).
C=CC[C@H]1NCc2cc(NC(=O)c3cc(F)cc4[nH]ncc34)ccc21 gave a solubility kinetic of 356 µM (≈ 120 µg/mL).
With Cc1cc(OCc2ccccc2)ccc1NS(=O)(=O)c1ccc(Cl)cc1C(=O)O the solubility kinetic was 394 µM (≈ 170 µg/mL).
In the case of CC(C)NC(=O)[C@H](Nc1ccc2c(c1)CNC2)c1cc(Cl)cc2[nH]ncc12, the solubility kinetic is reported as 311 µM (≈ 119 µg/mL).
In the case of CCCC[C@@H](NC(=O)OC(C)(C)C)C(=O)N[C@@H](C(=O)NCc1ccc(CN)cc1)c1ccc(OCc2ccccc2)cc1, the solubility kinetic is reported as 143 µM (≈ 84.2 µg/mL).
Compound CC(C)CNC(=O)c1cc(Cl)c(F)cc1NS(=O)(=O)c1ccc(Oc2ccccc2Cl)cc1 has a solubility kinetic of 4 µM (≈ 2.05 µg/mL).
COc1cc(-c2cc(NC(=O)c3cc(F)cc4[nH]ncc34)cc3c2CNC3)ccn1 gave a solubility kinetic of 180 µM (≈ 72.6 µg/mL).
In the case of O=C(O)c1cc(Cl)c(F)cc1S(=O)(=O)Nc1ccc(Oc2ccccc2Cl)cc1, the solubility kinetic is reported as 396 µM (≈ 181 µg/mL).
Work on O=C(Nc1ccc2c(c1)CNC2)c1cc(Cl)cc2c1CCC2 yielded a solubility kinetic of 335 µM (≈ 105 µg/mL).
Work on O=C(Nc1ccc2c(c1)CNC2)c1cc(Br)cc2[nH]c(-c3ccccc3)nc12 yielded a solubility kinetic of at most 2 µM.
With O=C1Cc2c(cccc2C(=O)Nc2ccc3c(c2)CNC3)N1 the solubility kinetic was 152 µM (≈ 44.6 µg/mL).
Compound NCc1cccc(CNC(=O)[C@@H](NC(=O)OCc2ccccc2)c2ccc(OCc3ccccc3)cc2)c1 has a solubility kinetic of 78 µM (≈ 39.7 µg/mL).
In the case of N#C[C@H](Nc1cccc(C(=O)O)c1)c1cc(Cl)cc2[nH]ncc12, the solubility kinetic is reported as 112 µM (≈ 36.6 µg/mL).
With O=C(NCC(F)F)[C@H](Nc1ccc2c(c1)CNC2)c1cc(Cl)cc2c1CCC2 the solubility kinetic was at least 400 µM.
O=C(Nc1ccc2c(c1)CNC2)c1cc(F)cc2c1CCC2 showed a solubility kinetic of 187 µM (≈ 55.4 µg/mL).
CSc1cc2c(cc1NC(=O)c1cc(F)cc3[nH]ncc13)CNC2 showed a solubility kinetic of 392 µM (≈ 134 µg/mL).
In the case of O=C(O)c1cc(Cl)ccc1NS(=O)(=O)c1ccc(-c2ccccc2Cl)cc1, the solubility kinetic is reported as 397 µM (≈ 168 µg/mL).
In the case of CC(C)n1cc2c(C(=O)Nc3ccc4c(c3)CNC4)cc(Cl)cc2n1, the solubility kinetic is reported as 181 µM (≈ 64.2 µg/mL).
For O=C(O)c1cc(Cl)ccc1S(=O)(=O)NC1CCN(c2nc(C3CC3)cc(C(F)(F)F)n2)CC1, the solubility kinetic was 380 µM (≈ 192 µg/mL).
In the case of OCC#C[C@H](Nc1ccc2c(c1)CNC2)c1cc(Cl)cc2[nH]ncc12, the solubility kinetic is reported as 135 µM (≈ 47.6 µg/mL).
In the case of COc1cc(C#N)cc([C@H](Nc2ccc3c(c2)CNC3)C(=O)NCC(F)F)c1, the solubility kinetic is reported as 381 µM (≈ 147 µg/mL).
In the case of O=C(Nc1cc2c(c(-c3c[nH]c(=O)c(F)c3)c1)CNC2)c1cc(F)cc2[nH]ncc12, the solubility kinetic is reported as 66 µM (≈ 26.9 µg/mL).
O=C(N[C@H]1[C@H]2CCCCC[C@H]2[C@H]1C(=O)Nc1cccc(C2CCNCC2)c1)OCc1ccccc1 showed a solubility kinetic of 49 µM (≈ 23.3 µg/mL).
In the case of NCc1cccc(NC(=O)[C@@H](NC(=O)OCc2ccccc2)c2ccc(OCc3ccccc3)cc2)c1, the solubility kinetic is reported as 23 µM (≈ 11.4 µg/mL).
N#C[C@H](Nc1ccc2c(c1)CNC2)c1cc(Cl)cc2[nH]ncc12 showed a solubility kinetic of 297 µM (≈ 96.2 µg/mL).
Work on O=C1Cc2c(cc(F)cc2C(=O)Nc2ccc3c(c2)CNC3)N1 yielded a solubility kinetic of 368 µM (≈ 115 µg/mL).
For O=C(/C=C/c1ccccc1)C(=O)N1CCN(CCc2ccccc2)CC1, the solubility kinetic was 239 µM (≈ 83.3 µg/mL).
CNC(=O)c1cc(Br)cc([C@H](Nc2ccc3c(c2)CNC3)C(=O)NCC(F)F)c1 showed a solubility kinetic of at least 400 µM.
In the case of Cc1cc(-c2ccc([C@@H](NC(=O)OCc3ccccc3)C(=O)Nc3cccc(CN)c3)cc2)cs1, the solubility kinetic is reported as 8 µM (≈ 3.88 µg/mL).
For CCc1cc(C(=O)Nc2cccc(CN)c2)sc1-c1ccc(Cl)cc1, the solubility kinetic was 7 µM (≈ 2.6 µg/mL).
With CNC(=O)c1cc(Cl)c(F)cc1NS(=O)(=O)c1ccc(Oc2ccccc2Cl)cc1 the solubility kinetic was 49 µM (≈ 23 µg/mL).
O=C(Nc1cc(Cl)cc(C(=O)Nc2n[nH]c3c2CNC3)c1)OCc1ccccc1 showed a solubility kinetic of 26 µM (≈ 10.7 µg/mL).
In the case of COc1cc(Cc2c(-c3ccc(F)cc3)noc2C)nc(N2CCNCC2)n1, the solubility kinetic is reported as 325 µM (≈ 125 µg/mL).
Work on O=C(Nc1ccc2c(c1)CNC2)c1cc(Cl)cc2c1cnn2C1CCC1 yielded a solubility kinetic of 172 µM (≈ 63.1 µg/mL).
In the case of CC[C@@H](Cc1nnn[nH]1)c1ccc(NC(=O)c2cc(Cl)cc(NC(=O)OCc3ccccc3)c2)cc1, the solubility kinetic is reported as 60 µM (≈ 30.3 µg/mL).
With O=C(NCCCF)[C@H](Nc1ccc2c(c1)CNC2)c1cc(Cl)cc(C2CC2)c1 the solubility kinetic was 394 µM (≈ 158 µg/mL).
In the case of CC(C)c1nc2c(C(=O)Nc3cccc(CN)c3)cccc2[nH]1, the solubility kinetic is reported as 316 µM (≈ 97.4 µg/mL).
O=C(Nc1cc2c(c(C3=CCOCC3)c1)CNC2)c1cc(F)cc2[nH]ncc12 showed a solubility kinetic of 157 µM (≈ 59.4 µg/mL).
O=C(NCC(F)F)[C@H](Nc1ccc2c(c1)CNC2)c1cc(Cl)cc2ccoc12 gave a solubility kinetic of 187 µM (≈ 75.9 µg/mL).
For O=C(NCC(F)F)[C@H](Nc1cc2c(cc1Br)CNC2)c1cc(Cl)cc(C2CC2)c1, the solubility kinetic was 333 µM (≈ 161 µg/mL).
In the case of O=C(NCC(F)F)[C@H](Nc1cnc2c(c1)CNC2)c1cc(Cl)cc(C2CC2)c1, the solubility kinetic is reported as 362 µM (≈ 147 µg/mL).

Same assay, conditions: buffer
For N#Cc1cc2c(cc1NC(=O)c1cc(F)cc3[nH]ncc13)CNC2, the “Solubility (mean)” value was 193 µM (≈ 62 µg/mL).
With CC(C)NC(=O)[C@H](Nc1ccc2c(c1)CNC2)c1cc(Cl)cc2[nH]c(-c3ccccc3)nc12 the “Solubility (mean)” value was 134 µM (≈ 61.6 µg/mL).
